Experimental data reported in paper PMC9820592, “Novel Chiral Ru(II) Complexes as Potential c-myc G-quadruplex DNA Stabilizers Inducing DNA Damage to Suppress Triple-Negative Breast Cancer Progression” (International Journal of Molecular Sciences, 2022).
Where “and” joins values, the source holds several entries; their conditions need not be identical. Equal values may be shown once.

Experiments:
[1] = test system: subintestinal vessels (SIVs); assay: Angiogenic assay in Tg (fli1: EGFP) zebrafish; format: in vivo; conditions: compared with control group
Protocol: (§1) The zebrafish model of transplanted breast cancer was constructed in accordance with the methods in the literature. Juvenile 48 h old breast cancer model zebrafish were placed in 48-well plates (n = 10), and 0.2 mL aquaculture water without or with Δ−3 (0, 2.5, 5, and 10 μM) was added for culture. Images were captured every 24 h using a fluorescence microscope to study the inhibitory effect of Δ−3 on zebrafish with breast cancer. In addition, the mean number of sprout and mean length of sprout in subintestinal vessels (SIVs) were analyzed by ImageProPlus software. The ethical protocols for the in vivo research on zebrafish complied with relevant laws.

MDA-MB-231 cells [2] = assay: Wound-healing assay; format: cell-based, human
Protocol: MDA-MB-231 cells (1 × 10^5 cells/well) were inoculated in a 6-well cell culture plate marked on the back until a single layer of cells covered more than 90% of the bottom of the culture plate, and a 200 µL pipette was used to scratch the culture. Different concentrations of the complexes (0, 2.5, 5, and 10 µM) were applied for 72 h. Migrating cells in the same field of view were observed and recorded every 24 h, and the average cell migration rate was calculated in three fields for every group.

MDA-MB-231 cells [3] = assay: Immunofluorescence of paxillin and F-actin; format: cell-based, human; conditions: 24 h
Protocol: MDA-MB-231 cells were inoculated in a 6-well plate containing a cover glass. On the second day, the cells were treated with different concentrations of the complex (0, 5, and 10 μM) for 24 h. The cells were fixed with 4% paraformaldehyde for 20 min, and then blocked with 5% BSA for 0.5 h at room temperature. The 1:500 anti-γH2AX antibody was diluted with 5% FBS and incubated for 1 h. The cells were incubated with lgG (H + L) for 0.5 h and treated with DAPI for 5 min. The cover glass was then transferred to a specified microscope slide and photographed with laser confocal microscopy. The antibodies used in immunofluorescence to determine invasion and metastasis were anti-paxillin antibody (ab32115), Fluor 488-conjugated IgG (H + L) (Proteintech), and rhodamine phalloidin (Amanita phalloidin, cytoskeleton).

A549 cells = assay: MTT assay, A549 cells; format: cell-based, human; conditions: 72 h, read-out: Inhibitory Effect (IC50/μM) A549
Protocol: (§2) Liver cancer HepG2 cells, lung cancer A549 cells, breast cancer MCF-7 and MDA-MB-231 cells, human nasopharyngeal carcinoma CNE-1 cells, and human immortalized keratinocyte HaCaT cells were seeded in 96-well plates (5 × 10^3 cells per well) and cultured at 37 °C and 5% CO2 for 24 h. Cells were treated with different concentrations of the complexes (0, 1.5625, 3.125, 6.25, 12.5, 25, 50, and 100 µM) for 72 h. After adding 20 µL MTT (5 mg/mL) solution to each well, the cells were incubated for 4 h, and then 150 µL DMSO was added to each well. The optical density of each well was detected by a microplate reader at a wavelength of 570 nm. The cell survival rate (%) = A(experimental group)/A(control group) × 100%, and the IC50 value was analyzed and calculated based on the survival rate.

HepG2 cells = assay: MTT assay, HepG2 cells; format: cell-based, human; conditions: 72 h, read-out: Inhibitory Effect (IC50/μM) HepG2
Protocol: as §2

MDA-MB-231 cells [4] = assay: Comet assay; format: cell-based, human; conditions: 5 and 10 μM
Protocol: DNA damage was detected by single-cell gel electrophoresis by using the Comet assay kit (Trevigen). MDA-MB-231 cells were added to a culture dish containing the medium. After treatment with different concentrations of the complexes (0, 5, and 10 μM) at 37 °C for 72 h, the cells were collected and washed with PBS three times. A solution of the cell suspension and melted low-melting-point agarose gel was mixed at a volume ratio of 1:7, and the equilateral sample was immediately transferred to a Comet Slide TM slide. The slides were washed twice with PBS, placed into an electrophoresis tank containing comet electrophoresis solution, and electrophoresed at 25 V for 30 min. After electrophoresis, the slides were washed twice with PBS. Finally, the cells were stained with EB and observed under a fluorescence microscope. Cells were randomly selected from each slide to take photos, and the tail moment was analyzed.

c-myc protein = c-myc protein expression in MDA-MB-231 cells; format: cell-based, human; conditions: 40 μΜ, 72 h
MDA-MB-231 cells [5] = assay: Flow cytometry, cell cycle distribution; format: cell-based, human; conditions: 72 h; for G0/G1: control 63.16%
Protocol: MDA-MB-231 cells were treated with different concentrations of the complexes (0, 10, 20, and 40 μM) for 72 h, then collected and stained with an Annexin V-FITC/PI Apoptosis Detection Kit I (BD, 556547). The MDA-MB-231 cells were fixed with 70% ethanol at 4 °C for 30 min, and then collected and stained with PI/RNase Staining Buffer (BD, 550825). The cells were analyzed by flow cytometry (Beckman, CytoFLEX). All experiments were repeated three times.

MDA-MB-231 cells [6] = assay: FITC-gelatine invasion assay; format: cell-based, human; conditions: 24 h
Protocol: An appropriate amount of FITC–gelatine glue was pipetted to cover the inner ring of the confocal cuvette, added to 0.5% glutaraldehyde for at least 30 min after solidification, and activated with 5 mg·mL^−1 sodium borohydride. Subsequently, 2 mL of cell suspension (5 × 10^4 cells) treated with different drug concentrations (0, 2.5, 5, and 10 µM) was added to each dish. The mixture was incubated at 37 °C for 24 h, and then the cells in each dish were fixed with 4% paraformaldehyde, incubated with phalloidin staining solution for 30 min and DAPI for 5 min, and imaged with a fluorescence microscope in the dark.

CNE-1 cells = assay: MTT assay, CNE-1 cells; format: cell-based, human; conditions: 72 h, read-out: Inhibitory Effect (IC50/μM) CNE-1
Protocol: as §2

MDA-MB-231 cells [7] = assay: Zebrafish xenograft breast cancer model; format: in vivo; conditions: 2.5, 5, and 10 μM, 72 h
Protocol: as §1

HaCaT cells = assay: MTT assay, normal HaCaT keratinocytes; format: cell-based; conditions: 72 h, normal human keratinocytes, read-out: Inhibitory Effect (IC50/μM) HaCaT
Protocol: as §2

MDA-MB-231 cells [8] = assay: MTT assay, MDA-MB-231 cells; format: cell-based, human; conditions: 72 h, read-out: Inhibitory Effect (IC50/μM) MDA-MB-231
Protocol: as §2

IC50 (A549 cells): 24.7 ± 0.28 µM | IC50 (HepG2 cells): 37.8 ± 0.6 µM | IC50 (MDA-MB-231 cells [8]): 25.5 µM
Substance: Δ-[Ru(bpy)2(3-NBEDPPZ)](ClO4)2 [Δ−3]
number and length of SIVs [1]: significantly decreased | migration rate (wound healing) (MDA-MB-231 cells [2]; 10 μM, different treatment times): less than half that of the control | migration of cells (wound healing) (MDA-MB-231 cells [2]; 2.5 and 5 μM): inhibited inconspicuously | focal adhesions (paxillin) and stress fibers (F-actin) (MDA-MB-231 cells [3]): the amount of paxillin decreased | DNA damage (comet appearance) (MDA-MB-231 cells [4]): cometary shapes appeared | expression of the c-myc protein (c-myc protein): effectively downregulated | G2/M (MDA-MB-231 cells [5]; 10 μM): 4.07% | S (MDA-MB-231 cells [5]; 10 μM): 30.96% | SubG1 (MDA-MB-231 cells [5]; 10 μM): 5.40% | G0/G1 (MDA-MB-231 cells [5]; 10 μM): 64.97% | G2/M (MDA-MB-231 cells [5]; 20 μM): 3.13% | S (MDA-MB-231 cells [5]; 20 μM): 27.26% | SubG1 (MDA-MB-231 cells [5]; 20 μM): 4.45% | G0/G1 (MDA-MB-231 cells [5]; 20 μM): 69.61% | G2/M (MDA-MB-231 cells [5]; 40 μM): 2.93% | S (MDA-MB-231 cells [5]; 40 μM): 29.70% | SubG1 (MDA-MB-231 cells [5]; 40 μM): 14.97% | G0/G1 (MDA-MB-231 cells [5]; 40 μM): 67.37% | degraded areas (black holes) on FITC-gelatine (MDA-MB-231 cells [6]; 10 μM): did not result in a black hole | number of degraded areas on FITC-gelatine (MDA-MB-231 cells [6]; 2.5 and 5 μM, control six degraded areas): markedly reduced | IC50 (CNE-1 cells): 40.9 ± 0.53 µM | number of MDA-MB-231 cells in zebrafish (MDA-MB-231 cells [7]): significantly lower than that of the control | IC50 (HaCaT cells): 70.9 µM and 71 µM
